Results published in PMC7794356, “Streamlined copper defenses make Bordetella pertussis reliant on custom-made operon” (Communications Biology, 2021).

Biological target: GorB (BP1729) (Bordetella pertussis, UniProt Q7VXM2)
Assay: NADPH oxidation followed at […] nm
Type: biochemical
Conditions: 0.3 mM NADPH, 8 mM GSH; GSSG generated in situ from GSH by H2O2 (0.1-2 mM); 0.1 M sodium/potassium phosphate pH 7.6, 25 °C

Chain of GorB (BP1729) (Q7VXM2 entry or part of it): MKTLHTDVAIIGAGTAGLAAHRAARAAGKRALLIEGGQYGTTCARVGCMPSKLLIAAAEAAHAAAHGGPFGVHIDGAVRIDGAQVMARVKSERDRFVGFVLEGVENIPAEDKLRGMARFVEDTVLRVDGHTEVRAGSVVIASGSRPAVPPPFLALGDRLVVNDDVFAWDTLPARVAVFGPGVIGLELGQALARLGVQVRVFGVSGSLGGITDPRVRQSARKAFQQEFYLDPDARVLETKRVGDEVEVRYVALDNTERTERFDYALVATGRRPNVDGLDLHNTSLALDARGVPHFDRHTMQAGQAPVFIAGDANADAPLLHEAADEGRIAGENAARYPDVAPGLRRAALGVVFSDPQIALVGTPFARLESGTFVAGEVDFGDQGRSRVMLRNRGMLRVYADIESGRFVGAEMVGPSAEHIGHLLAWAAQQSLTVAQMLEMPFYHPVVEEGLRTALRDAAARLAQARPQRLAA

For `NC(=O)C1=CN([C@@H]2O[C@H](COP(=O)(O)OP(=O)(O)OC[C@H]3O[C@@H](n4cnc5c(N)ncnc54)[C@H](OP(=O)(O)O)[C@@H]3O)[C@@H](O)[C@H]2O)C=CC1` [NADPH], the “NADPH oxidation followed at 340 nm” value was “Oxidation of NADPH by recombinant GorB over time”.
